Data from article PMC11649521 (The Journal of Physiology, 2024).

How the values were obtained:
Assay in all cases: cell-based
Details in all cases: read-out: % block at 1 μM PhTx
[1] = target: B/β (type-B iGluR/Neto-β; GluRIIB/C/D/E + Neto-β) (Drosophila melanogaster, UniProt Q0KI42+Q7KSB1+Q9VMP3+Q9VPV3)
[2] = target: B/α (type-B iGluR/Neto-α; GluRIIB/C/D/E + Neto-α) (Drosophila melanogaster, UniProt Q0KI42+Q7KSB1+Q9VMP3+Q9VPV3)
[3] = target: A/β (type-A iGluR/Neto-β; GluRIIA/C/D/E + Neto-β) (Drosophila melanogaster, UniProt Q0KI42+Q7KSB1+Q9VMP4+Q9VPV3)
Sequence of A/β (type-A iGluR/Neto-β; GluRIIA/C/D/E + Neto-β) (Q9VMP4 22-907): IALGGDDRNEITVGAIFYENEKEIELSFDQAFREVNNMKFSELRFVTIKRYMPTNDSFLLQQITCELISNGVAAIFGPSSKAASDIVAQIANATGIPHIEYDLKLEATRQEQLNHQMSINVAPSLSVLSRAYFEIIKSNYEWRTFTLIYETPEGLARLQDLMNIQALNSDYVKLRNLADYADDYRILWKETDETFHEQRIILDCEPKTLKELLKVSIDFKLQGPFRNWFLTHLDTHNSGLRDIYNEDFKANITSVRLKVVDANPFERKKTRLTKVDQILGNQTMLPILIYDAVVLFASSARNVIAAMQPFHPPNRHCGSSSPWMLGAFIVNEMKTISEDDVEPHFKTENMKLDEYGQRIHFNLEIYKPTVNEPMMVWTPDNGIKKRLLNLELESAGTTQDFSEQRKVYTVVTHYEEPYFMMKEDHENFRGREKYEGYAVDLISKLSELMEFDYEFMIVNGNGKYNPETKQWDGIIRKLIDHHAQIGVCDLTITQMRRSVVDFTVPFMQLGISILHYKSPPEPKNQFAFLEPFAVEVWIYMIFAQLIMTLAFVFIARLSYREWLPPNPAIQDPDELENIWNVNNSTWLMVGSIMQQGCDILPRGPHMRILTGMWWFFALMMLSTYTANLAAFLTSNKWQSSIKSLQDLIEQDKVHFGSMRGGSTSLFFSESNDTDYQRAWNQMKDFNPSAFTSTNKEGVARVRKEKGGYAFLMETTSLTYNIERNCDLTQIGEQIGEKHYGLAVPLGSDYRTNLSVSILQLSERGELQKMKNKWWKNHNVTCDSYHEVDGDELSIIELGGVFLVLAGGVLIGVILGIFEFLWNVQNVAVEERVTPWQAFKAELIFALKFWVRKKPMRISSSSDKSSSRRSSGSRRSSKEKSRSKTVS
Sequence of A/β (type-A iGluR/Neto-β; GluRIIA/C/D/E + Neto-β) (Q9VPV3 23-940): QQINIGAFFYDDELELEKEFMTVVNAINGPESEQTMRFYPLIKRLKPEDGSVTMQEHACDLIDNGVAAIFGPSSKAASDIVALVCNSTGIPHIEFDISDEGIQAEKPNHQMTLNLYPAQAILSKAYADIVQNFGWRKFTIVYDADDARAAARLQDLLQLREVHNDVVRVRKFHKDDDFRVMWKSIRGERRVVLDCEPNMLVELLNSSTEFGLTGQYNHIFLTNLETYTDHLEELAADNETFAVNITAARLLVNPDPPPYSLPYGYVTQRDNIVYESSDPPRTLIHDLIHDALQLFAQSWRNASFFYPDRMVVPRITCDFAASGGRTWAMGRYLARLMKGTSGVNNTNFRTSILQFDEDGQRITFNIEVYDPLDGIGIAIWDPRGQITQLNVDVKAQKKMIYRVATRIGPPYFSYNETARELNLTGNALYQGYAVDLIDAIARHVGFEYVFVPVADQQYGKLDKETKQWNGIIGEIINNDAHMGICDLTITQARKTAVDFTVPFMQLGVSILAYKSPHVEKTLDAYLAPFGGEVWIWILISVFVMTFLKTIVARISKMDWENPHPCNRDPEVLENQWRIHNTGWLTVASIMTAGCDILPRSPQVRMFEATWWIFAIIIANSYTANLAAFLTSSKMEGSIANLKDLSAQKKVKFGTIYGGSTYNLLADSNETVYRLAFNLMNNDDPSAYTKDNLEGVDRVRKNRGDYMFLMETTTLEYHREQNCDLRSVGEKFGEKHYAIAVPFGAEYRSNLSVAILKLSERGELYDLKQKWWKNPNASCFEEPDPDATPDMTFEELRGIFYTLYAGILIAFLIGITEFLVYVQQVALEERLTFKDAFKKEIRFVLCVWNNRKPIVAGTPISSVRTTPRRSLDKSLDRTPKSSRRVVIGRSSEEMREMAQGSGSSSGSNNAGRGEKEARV
Sequence of A/β (type-A iGluR/Neto-β; GluRIIA/C/D/E + Neto-β) (Q7KSB1 19-902): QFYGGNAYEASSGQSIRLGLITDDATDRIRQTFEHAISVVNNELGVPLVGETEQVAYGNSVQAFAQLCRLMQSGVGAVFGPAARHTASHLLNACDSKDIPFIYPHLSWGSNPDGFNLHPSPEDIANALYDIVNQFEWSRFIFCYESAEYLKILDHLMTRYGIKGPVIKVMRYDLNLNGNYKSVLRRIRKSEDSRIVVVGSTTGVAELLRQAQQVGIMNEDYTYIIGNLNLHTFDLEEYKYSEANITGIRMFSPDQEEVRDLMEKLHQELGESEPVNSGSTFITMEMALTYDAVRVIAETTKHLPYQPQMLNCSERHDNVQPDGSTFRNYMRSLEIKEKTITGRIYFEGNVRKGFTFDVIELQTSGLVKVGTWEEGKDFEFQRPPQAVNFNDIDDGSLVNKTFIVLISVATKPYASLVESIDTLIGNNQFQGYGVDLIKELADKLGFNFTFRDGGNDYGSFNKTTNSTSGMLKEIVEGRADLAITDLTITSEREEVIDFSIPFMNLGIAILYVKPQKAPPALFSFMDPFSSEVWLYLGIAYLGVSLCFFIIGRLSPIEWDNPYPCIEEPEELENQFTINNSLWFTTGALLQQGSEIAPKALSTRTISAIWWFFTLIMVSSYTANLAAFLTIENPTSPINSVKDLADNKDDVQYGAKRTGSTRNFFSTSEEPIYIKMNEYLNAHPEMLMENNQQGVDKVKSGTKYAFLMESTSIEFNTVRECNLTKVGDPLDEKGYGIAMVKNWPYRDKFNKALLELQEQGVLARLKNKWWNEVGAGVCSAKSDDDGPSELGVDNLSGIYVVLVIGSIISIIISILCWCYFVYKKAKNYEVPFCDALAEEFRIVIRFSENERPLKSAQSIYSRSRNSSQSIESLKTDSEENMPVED
Sequence of A/β (type-A iGluR/Neto-β; GluRIIA/C/D/E + Neto-β) (Q0KI42 23-897): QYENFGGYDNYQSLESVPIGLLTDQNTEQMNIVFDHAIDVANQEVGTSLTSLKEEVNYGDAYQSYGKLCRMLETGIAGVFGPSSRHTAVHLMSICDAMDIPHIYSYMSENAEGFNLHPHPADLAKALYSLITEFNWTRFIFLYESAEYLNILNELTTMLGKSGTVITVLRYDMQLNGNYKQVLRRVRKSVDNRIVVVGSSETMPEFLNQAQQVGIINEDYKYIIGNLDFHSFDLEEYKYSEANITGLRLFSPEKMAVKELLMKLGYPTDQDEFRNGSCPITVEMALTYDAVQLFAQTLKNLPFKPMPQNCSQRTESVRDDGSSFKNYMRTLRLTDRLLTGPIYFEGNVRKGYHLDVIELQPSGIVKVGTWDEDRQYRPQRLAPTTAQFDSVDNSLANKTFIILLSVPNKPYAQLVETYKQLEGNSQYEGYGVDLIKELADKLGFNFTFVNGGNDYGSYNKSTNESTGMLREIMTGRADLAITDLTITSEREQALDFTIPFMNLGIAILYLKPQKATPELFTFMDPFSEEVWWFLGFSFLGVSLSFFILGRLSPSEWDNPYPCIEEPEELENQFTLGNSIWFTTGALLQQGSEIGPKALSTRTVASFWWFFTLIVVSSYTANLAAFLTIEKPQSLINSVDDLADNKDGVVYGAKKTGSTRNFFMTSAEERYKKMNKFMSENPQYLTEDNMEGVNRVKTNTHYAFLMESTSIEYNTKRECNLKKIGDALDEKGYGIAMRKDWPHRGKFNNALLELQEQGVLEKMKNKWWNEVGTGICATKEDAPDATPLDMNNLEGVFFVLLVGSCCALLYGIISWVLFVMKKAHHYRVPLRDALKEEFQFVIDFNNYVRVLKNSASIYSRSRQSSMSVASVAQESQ
Sequence of A/β (type-A iGluR/Neto-β; GluRIIA/C/D/E + Neto-β) (X2JDL4 127-822 partner limits assumed): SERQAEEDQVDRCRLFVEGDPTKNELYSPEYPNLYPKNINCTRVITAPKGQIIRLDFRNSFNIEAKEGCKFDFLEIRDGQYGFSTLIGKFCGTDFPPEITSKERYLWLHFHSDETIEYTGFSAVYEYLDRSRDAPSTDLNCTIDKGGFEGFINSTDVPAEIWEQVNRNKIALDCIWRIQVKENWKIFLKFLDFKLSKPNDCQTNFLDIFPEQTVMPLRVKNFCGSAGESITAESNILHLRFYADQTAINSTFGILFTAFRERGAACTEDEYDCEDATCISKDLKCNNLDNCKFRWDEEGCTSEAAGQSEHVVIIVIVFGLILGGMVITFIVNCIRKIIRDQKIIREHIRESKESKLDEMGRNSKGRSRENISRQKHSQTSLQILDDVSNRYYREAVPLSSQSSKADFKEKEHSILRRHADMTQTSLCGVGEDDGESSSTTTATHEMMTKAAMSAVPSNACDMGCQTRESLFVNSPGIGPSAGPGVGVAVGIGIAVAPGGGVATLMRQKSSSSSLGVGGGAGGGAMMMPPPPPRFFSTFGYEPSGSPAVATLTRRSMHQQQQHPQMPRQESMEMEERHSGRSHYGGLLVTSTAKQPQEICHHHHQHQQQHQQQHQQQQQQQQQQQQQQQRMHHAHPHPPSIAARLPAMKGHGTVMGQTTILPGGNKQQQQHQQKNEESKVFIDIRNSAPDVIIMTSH

## CCCC(=O)N[C@@H](Cc1ccc(O)cc1)C(=O)NCCCNCCCCNCCCN [PhTx, philanthotoxin‐343]
[1]
  inhibition at 1 µM: 74.7 ± 1.72%
[2]
  inhibition at 1 µM: 83.3 ± 5.07%
[3]
  inhibition at 1 µM: 98.8 ± 0.67%
